Test results reported in ChEMBL document CHEMBL4270577, “Synthesis, anticancer activity and molecular modeling studies of 1,2,4-triazole derivatives as EGFR inhibitors” (Eur J Med Chem, 2018).

Legend:
CCRF-CEM = assay: Growth inhibition of human CCRF-CEM cells at 10 uM incubated for 48 hrs by sulforhodamine B assay relative to control; assay type: functional; conditions: read-out: GI
HT-29 [1] = assay: Growth inhibition of human HT-29 cells at 10 uM incubated for 48 hrs by sulforhodamine B assay relative to control; assay type: functional; conditions: HT-29, 48 h, read-out: GI
PANC-1 = assay: Antiproliferative activity against human PANC1 cells after 48 hrs by propidium iodide staining-based fluorometric analysis; assay type: functional, cell-based; conditions: PANC-1, 48 h
HOP-62 = assay: Growth inhibition of human HOP62 cells at 10 uM incubated for 48 hrs by sulforhodamine B assay relative to control; assay type: functional; conditions: HOP-62, 48 h, read-out: GI
OVCAR-8 = assay: Growth inhibition of human OVCAR8 cells at 10 uM incubated for 48 hrs by sulforhodamine B assay relative to control; assay type: functional; conditions: OVCAR-8, 48 h, read-out: GI
UACC-62 = assay: Growth inhibition of human UACC62 cells at 10 uM incubated for 48 hrs by sulforhodamine B assay relative to control; assay type: functional; conditions: UACC-62, 48 h, read-out: GI
NCI-H522 = assay: Growth inhibition of human NCI-H522 cells at 10 uM incubated for 48 hrs by sulforhodamine B assay relative to control; assay type: functional; conditions: NCI-H522, 48 h, read-out: GI
NCI-H226 = assay: Growth inhibition of human NCI-H226 cells at 10 uM incubated for 48 hrs by sulforhodamine B assay relative to control; assay type: functional; conditions: NCI-H226, 48 h, read-out: GI
HT-29 [2] = assay: Antiproliferative activity against human HT-29 cells after 48 hrs by propidium iodide staining-based fluorometric analysis; assay type: functional, cell-based; conditions: HT-29, 48 h
TK-10 = assay: Growth inhibition of human TK10 cells at 10 uM incubated for 48 hrs by sulforhodamine B assay relative to control; assay type: functional; conditions: TK-10, 48 h, read-out: GI
MOLT-4 = assay: Growth inhibition of human MOLT4 cells at 10 uM incubated for 48 hrs by sulforhodamine B assay relative to control; assay type: functional; conditions: MOLT-4, 48 h, read-out: GI
A549 = assay: Growth inhibition of human A549/ATCC cells at 10 uM incubated for 48 hrs by sulforhodamine B assay relative to control; assay type: functional; conditions: A549, 48 h, read-out: GI
NCI-H460 = assay: Antiproliferative activity against human H460 cells after 48 hrs by propidium iodide staining-based fluorometric analysis; assay type: functional, cell-based; conditions: NCI-H460, 48 h
UO-31 = assay: Growth inhibition of human UO31 cells at 10 uM incubated for 48 hrs by sulforhodamine B assay relative to control; assay type: functional; conditions: UO-31, 48 h, read-out: GI
UACC-257 = assay: Growth inhibition of human UACC257 cells at 10 uM incubated for 48 hrs by sulforhodamine B assay relative to control; assay type: functional; conditions: UACC-257, 48 h, read-out: GI
RPMI-8226 = assay: Growth inhibition of human RPMI8226 cells at 10 uM incubated for 48 hrs by sulforhodamine B assay relative to control; assay type: functional; conditions: RPMI-8226, 48 h, read-out: GI
SR = assay: Growth inhibition of human SR cells at 10 uM incubated for 48 hrs by sulforhodamine B assay relative to control; assay type: functional; conditions: read-out: GI
HL-60(TB) = assay: Growth inhibition of human HL-60(TB) cells at 10 uM incubated for 48 hrs by sulforhodamine B assay relative to control; assay type: functional; conditions: HL-60, 48 h, read-out: GI
MIA PaCa-2 = assay: Antiproliferative activity against human MIAPaCa2 cells after 48 hrs by propidium iodide staining-based fluorometric analysis; assay type: functional, cell-based; conditions: MIA PaCa-2, 48 h
NCI-H23 = assay: Growth inhibition of human NCI-H23 cells at 10 uM incubated for 48 hrs by sulforhodamine B assay relative to control; assay type: functional; conditions: NCI-H23, 48 h, read-out: GI
PC-3 = assay: Growth inhibition of human PC3 cells at 10 uM incubated for 48 hrs by sulforhodamine B assay relative to control; assay type: functional; conditions: PC-3, 48 h, read-out: GI
SNB-75 = assay: Growth inhibition of human SNB75 cells at 10 uM incubated for 48 hrs by sulforhodamine B assay relative to control; assay type: functional; conditions: SNB-75, 48 h, read-out: GI
SK-OV-3 = assay: Growth inhibition of human SKOV3 cells at 10 uM incubated for 48 hrs by sulforhodamine B assay relative to control; assay type: functional; conditions: SK-OV-3, 48 h, read-out: GI
HCT-116 = assay: Growth inhibition of human HCT116 cells at 10 uM incubated for 48 hrs by sulforhodamine B assay relative to control; assay type: functional; conditions: HCT-116, 48 h, read-out: GI
NCI-H322M = assay: Growth inhibition of human NCI-H322M cells at 10 uM incubated for 48 hrs by sulforhodamine B assay relative to control; assay type: functional; conditions: read-out: GI
U-251 = assay: Growth inhibition of human U251 cells at 10 uM incubated for 48 hrs by sulforhodamine B assay relative to control; assay type: functional; conditions: U-251, 48 h, read-out: GI
SK-MEL-2 = assay: Growth inhibition of human SK-MEL-2 cells at 10 uM incubated for 48 hrs by sulforhodamine B assay relative to control; assay type: functional; conditions: SK-MEL-2, 48 h, read-out: GI
MCF7 = assay: Growth inhibition of human MCF7 cells at 10 uM incubated for 48 hrs by sulforhodamine B assay relative to control; assay type: functional; conditions: MCF7, 48 h, read-out: GI
Hs-578T = assay: Growth inhibition of human Hs 578T cells at 10 uM incubated for 48 hrs by sulforhodamine B assay relative to control; assay type: functional; conditions: read-out: GI
T47D = assay: Growth inhibition of human T47D cells at 10 uM incubated for 48 hrs by sulforhodamine B assay relative to control; assay type: functional; conditions: read-out: GI
SNB-19 = assay: Growth inhibition of human SNB19 cells at 10 uM incubated for 48 hrs by sulforhodamine B assay relative to control; assay type: functional; conditions: SNB-19, 48 h, read-out: GI
MDA-MB-231 = assay: Growth inhibition of human MDA-MB-231/ATCC cells at 10 uM incubated for 48 hrs by sulforhodamine B assay relative to control; assay type: functional; conditions: MDA-MB-231, 48 h, read-out: GI
SF-268 = assay: Growth inhibition of human SF268 cells at 10 uM incubated for 48 hrs by sulforhodamine B assay relative to control; assay type: functional; conditions: SF-268, 48 h, read-out: GI
IGROV-1 = assay: Growth inhibition of human IGROV1 cells at 10 uM incubated for 48 hrs by sulforhodamine B assay relative to control; assay type: functional; conditions: IGROV-1, 48 h, read-out: GI
Tubulin (Homo sapiens) = Tubulin (Homo sapiens) (UniProt P68371+Q9H4B7+P0DPH7+P68366+Q13509+Q71U36+P04350+Q3ZCM7+P07437+P68363+Q9BQE3+Q6PEY2+Q13885+Q9BVA1+Q9BUF5); assay: Inhibition of tubulin (unknown origin) polymerization assessed as polymerized tubulin level at 5 to 25 uM by fluorescence assay; assay type: protein-complex assay

Compound | inhibition of growth at 10 µM (CCRF-CEM) [%] | inhibition of growth at 10 µM (HT-29 [1]) [%] | IC50 (PANC-1) [µM] | inhibition of growth at 10 µM (HOP-62) [%] | inhibition of growth at 10 µM (OVCAR-8) [%] | inhibition of growth at 10 µM (UACC-62) [%] | inhibition of growth at 10 µM (NCI-H522) [%] | inhibition of growth at 10 µM (NCI-H226) [%] | IC50 (HT-29 [2]) [µM] | inhibition of growth at 10 µM (MOLT-4) [%] | inhibition of growth at 10 µM (A549) [%] | IC50 (NCI-H460) [µM] | inhibition of growth at 10 µM (UO-31) [%] | inhibition of growth at 10 µM (UACC-257) [%] | inhibition of growth at 10 µM (RPMI-8226) [%] | inhibition of growth at 10 µM (SR) [%] | inhibition of growth at 10 µM (HL-60(TB)) [%] | IC50 (MIA PaCa-2) [µM] | inhibition of growth at 10 µM (NCI-H23) [%] | inhibition of growth at 10 µM (PC-3) [%] | further results
C/C(=N/O)c1ccc(NC(=O)Cn2nc(C(F)(F)F)nc2N)cc1 | 10.5 | 11.9 | 3.5 | 9.21 | 20.5 | 5.39 | 31 | 12.9 | 5.4 | 23.3 | 29 | 5.2 | 15.1 | 25.6 | 4.65 | 15.9 | 26 | 4.9 | 4.46 | 20.3 | inhibition of growth at 10 µM (TK-10): 14.3%; inhibition of growth at 10 µM (SNB-75): 14.8%; inhibition of growth at 10 µM (SK-OV-3): 3.53%; inhibition of growth at 10 µM (HCT-116): 8.65%; inhibition of growth at 10 µM (NCI-H322M): 4.32%; inhibition of growth at 10 µM (U-251): 11.3%; inhibition of growth at 10 µM (SK-MEL-2): 13.1%
C/C(=N\O)c1ccc(NC(=O)Cn2nc(-c3ccc(Cl)cc3)nc2N)cc1 | 14.7 | 13.3 | 6.6 | 11.7 | 18 | 8.96 | 31.5 | 17.8 | 5.8 | 33 | 20.1 | 7.1 | 34 | 27.8 | 6.42 | 18.3 | 5.94 | 8.4 | 7.43 | 28.9 | inhibition of growth at 10 µM (MCF7): 15.9%; inhibition of growth at 10 µM (Hs-578T): 11.2%; inhibition of growth at 10 µM (T47D): 13.5%; inhibition of growth at 10 µM (SNB-19): 10.7%; inhibition of growth at 10 µM (MDA-MB-231): 17.4%; inhibition of growth at 10 µM (SNB-75): 12%; inhibition of growth at 10 µM (SF-268): 10.5%; inhibition of growth at 10 µM (IGROV-1): 10.5%; inhibition of growth at 10 µM (SK-OV-3): 27.4%; inhibition of growth at 10 µM (NCI-H322M): 7.09%; inhibition of growth at 10 µM (U-251): 9.67%; inhibition of growth at 10 µM (SK-MEL-2): 15.3%
CC(=O)O[C@@]12CO[C@@H]1C[C@H](O)[C@@]1(C)C(=O)[C@H](O)C3=C(C)[C@@H](OC(=O)[C@H](O)[C@@H](NC(=O)OC(C)(C)C)c4ccccc4)C[C@@](O)([C@@H](OC(=O)c4ccccc4)[C@H]21)C3(C)C |  |  |  |  |  |  |  |  |  |  |  |  |  |  |  |  |  |  |  |  | Activity (Tubulin (Homo sapiens)): 4740 a.u.
CC(=O)c1ccc(NC(=O)Cn2nc(-c3ccccc3)nc2N)cc1 |  |  | 9.5 |  |  |  |  |  | 8.4 |  |  | 9.8 |  |  |  |  |  | 8.5 |  |  | 
